Key:
[1] = target: T1, Peroxisome proliferator-activated receptor gamma (Homo sapiens, UniProt P37231); assay: In vitro binding affinity for PPAR-gamma
T1 sequence (P37231 whole entry): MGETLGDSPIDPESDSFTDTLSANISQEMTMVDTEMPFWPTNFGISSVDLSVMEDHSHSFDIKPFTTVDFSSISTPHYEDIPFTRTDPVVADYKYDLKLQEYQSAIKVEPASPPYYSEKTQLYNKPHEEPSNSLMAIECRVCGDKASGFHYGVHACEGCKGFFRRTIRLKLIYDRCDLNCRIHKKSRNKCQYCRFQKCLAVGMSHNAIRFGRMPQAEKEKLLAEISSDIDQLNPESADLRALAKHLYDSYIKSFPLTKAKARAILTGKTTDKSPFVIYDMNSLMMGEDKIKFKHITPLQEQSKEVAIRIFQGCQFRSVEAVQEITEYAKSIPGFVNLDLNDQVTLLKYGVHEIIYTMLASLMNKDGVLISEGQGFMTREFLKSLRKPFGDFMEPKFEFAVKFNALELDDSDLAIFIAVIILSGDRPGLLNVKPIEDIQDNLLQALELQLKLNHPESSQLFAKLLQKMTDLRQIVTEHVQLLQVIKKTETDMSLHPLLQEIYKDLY

[2] = target: T2, Peroxisome proliferator-activated receptor alpha (Homo sapiens, UniProt Q07869); assay: Effective concentration against human PPAR-alpha in Gal4 transactivation assay; format: functional
T2 sequence (Q07869 whole entry): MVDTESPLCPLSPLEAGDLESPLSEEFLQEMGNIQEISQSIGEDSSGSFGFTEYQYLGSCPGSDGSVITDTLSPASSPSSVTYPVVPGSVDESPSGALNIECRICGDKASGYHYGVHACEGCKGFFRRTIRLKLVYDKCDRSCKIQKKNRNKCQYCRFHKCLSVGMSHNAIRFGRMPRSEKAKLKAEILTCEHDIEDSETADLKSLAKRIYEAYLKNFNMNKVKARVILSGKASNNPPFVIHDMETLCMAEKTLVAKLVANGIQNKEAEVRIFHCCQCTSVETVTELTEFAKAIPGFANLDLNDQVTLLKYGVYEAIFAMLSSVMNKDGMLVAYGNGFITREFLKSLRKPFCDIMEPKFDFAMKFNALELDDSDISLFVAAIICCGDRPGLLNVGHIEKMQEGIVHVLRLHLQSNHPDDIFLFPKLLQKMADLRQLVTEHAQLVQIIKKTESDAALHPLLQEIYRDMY

[3] = tested on: Canis familiaris; assay: Effect on cholesterol lowering in male Beagle dog at an oral dose of 0.01 mkd for 7 days
[4] = tested on: Canis familiaris; assay: Effect on cholesterol lowering in male Beagle dog at an oral dose of 0.3 mkd for 3 days with 4 mkd simavastatin
[5] = tested on: Cricetinae gen. sp.; assay: Effect at an oral dose of 0.3 mg/kg/day for 14 days on serum triglyceride level of hamster; format: functional, Cricetulus griseus
[6] = tested on: Canis familiaris; assay: Effect on cholesterol lowering in male Beagle dog at an oral dose of 0.3 mkd for 7 days
[7] = tested on: Canis familiaris; assay: Effect on cholesterol lowering in male Beagle dog at an oral dose of 0.3 mkd for 10 days
[8] = tested on: Canis familiaris; assay: Effect on cholesterol lowering in male Beagle dog at an oral dose of 0.1 mkd for 15 days
[9] = tested on: Canis familiaris; assay: Effect on cholesterol lowering in male Beagle dog at an oral dose of 0.01 mkd for 15 days
[10] = tested on: Cricetinae gen. sp.; assay: Effect at an oral dose of 0.3 mg/kg/day for 14 days on serum cholesterol level of hamster; format: functional, Cricetulus griseus
[11] = tested on: Canis familiaris; assay: Effect on cholesterol lowering in male Beagle dog at an oral dose of 0.3 mkd for 15 days with 4 mkd simavastatin
[12] = tested on: Canis familiaris; assay: Effect on cholesterol lowering in male Beagle dog at an oral dose of 0.1 mkd for 7 days
[13] = tested on: Cricetinae gen. sp.; assay: Effect at an oral dose of 0.1 mg/kg/day for 14 days on serum triglyceride level of hamster; format: functional, Cricetulus griseus
[14] = tested on: Canis familiaris; assay: Effect on cholesterol lowering in male Beagle dog at an oral dose of 0.1 mkd for 10 days
[15] = target: T3, Peroxisome proliferator-activated receptor alpha (Canis lupus familiaris, UniProt Q95N78); assay: Effective concentration against canine PPAR-alpha in Gal4 transactivation assay
T3 sequence (Q95N78 whole entry): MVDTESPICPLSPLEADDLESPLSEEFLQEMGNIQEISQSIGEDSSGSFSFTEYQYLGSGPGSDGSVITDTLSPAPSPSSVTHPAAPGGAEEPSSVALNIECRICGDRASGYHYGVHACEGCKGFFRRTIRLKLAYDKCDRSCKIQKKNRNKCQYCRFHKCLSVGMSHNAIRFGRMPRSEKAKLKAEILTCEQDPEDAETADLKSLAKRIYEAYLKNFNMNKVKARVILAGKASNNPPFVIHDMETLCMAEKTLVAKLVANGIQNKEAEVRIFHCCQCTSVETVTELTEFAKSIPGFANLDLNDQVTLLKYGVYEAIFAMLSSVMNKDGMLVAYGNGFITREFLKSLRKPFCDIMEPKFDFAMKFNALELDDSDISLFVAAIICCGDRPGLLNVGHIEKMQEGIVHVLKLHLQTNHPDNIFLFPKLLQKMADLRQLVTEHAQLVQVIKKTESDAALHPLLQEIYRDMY

[16] = tested on: Canis familiaris; assay: Effect on cholesterol lowering in male Beagle dog at an oral dose of 0.03 mkd for 15 days
[17] = target: T1, Peroxisome proliferator-activated receptor gamma; assay: Effective concentration against human PPAR-gamma in Gal4 transactivation assay; 30% response at 3 uM; format: functional
[18] = In vitro binding affinity for PPAR-alpha; design: species or system Homo sapiens
[19] = tested on: Cricetinae gen. sp.; assay: Effect at an oral dose of 0.1 mg/kg/day for 14 days on serum cholesterol level of hamster; format: functional, Cricetulus griseus
[20] = tested on: Cricetinae gen. sp.; assay: Effect at an oral dose of 1 mg/kg/day for 14 days on serum triglyceride level of hamster; format: functional, Cricetulus griseus
[21] = tested on: Canis familiaris; assay: Effect on cholesterol lowering in male Beagle dog at an oral dose of 0.01 mkd for 10 days
[22] = tested on: Canis familiaris; assay: Effect on cholesterol lowering in male Beagle dog at an oral dose of 0.3 mkd for 3 days
[23] = tested on: Canis familiaris; assay: Effect on cholesterol lowering in male Beagle dog at an oral dose of 0.1 mkd for 3 days
[24] = tested on: Canis familiaris; assay: Effect on cholesterol lowering in male Beagle dog at an oral dose of 0.3 mkd for 10 days with 4 mkd simavastatin
[25] = tested on: Canis familiaris; assay: Effect on cholesterol lowering in male Beagle dog at an oral dose of 0.3 mkd for 15 days
[26] = tested on: Canis familiaris; assay: Effect on cholesterol lowering in male Beagle dog at an oral dose of 0.03 mkd for 3 days

Question: Which IC50 [1] does the source give for CC[C@@]1(C(=O)O)Cc2cc(OCCCOc3ccc(OC(F)(F)F)cc3Cl)ccc2O1 here?
Answer: Its IC50 is > 15000 nM.

Question: And the EC50 [2]?
Answer: The EC50 was 2 nM.

Question: And the TC [3]?
Answer: Its TC is -7.2%.

Question: And the TC [4]?
Answer: The TC was -14.2%.

Question: What about the TG [5] of the same molecule?
Answer: Its TG is -31.85%.

Question: What about the TC [6] of the same molecule?
Answer: The TC was -17.4%.

Question: And the TC [7]?
Answer: The TC was -20.5%.

Question: What about the TC [8] of the same molecule?
Answer: Its TC is -22.1%.

Question: And the TC [9]?
Answer: Its TC is -21%.

Question: And the TC [10]?
Answer: Its TC is -30%.

Question: And the TC [11]?
Answer: The TC was -39.7%.

Question: What about the TC [12] of the same molecule?
Answer: The TC was -18%.

Question: What about the TG [13] of the same molecule?
Answer: The TG was -11.78%.

Question: And the TC [14]?
Answer: The TC was -22.1%.

Question: And the EC50 [15]?
Answer: Its EC50 is 2 nM.

Question: And the TC [16]?
Answer: Its TC is -24.3%.

Question: What about the EC50 [17] of the same molecule?
Answer: Its EC50 is > 3000 nM.

Question: What about the IC50 [18] of the same molecule?
Answer: The IC50 was 6 nM.

Question: And the TC [19]?
Answer: The TC was -15%.

Question: And the TG [20]?
Answer: The TG was -43.65%.

Question: And the TC [21]?
Answer: The TC was -11.7%.

Question: What about the TC [22] of the same molecule?
Answer: Its TC is -10.1%.

Question: What about the TC [23] of the same molecule?
Answer: Its TC is -7.5%.

Question: And the TC [24]?
Answer: Its TC is -36.9%.

Question: What about the TC [25] of the same molecule?
Answer: Its TC is -24.2%.

Question: What about the TC [26] of the same molecule?
Answer: Its TC is -6.5%.

From ChEMBL document CHEMBL1144356 (J Med Chem, 2005)
